In ChEMBL document CHEMBL4028808, “Design and synthesis of selective CDK8/19 dual inhibitors: Discovery of 4,5-dihydrothieno[3',4':3,4]benzo[1,2-d]isothiazole derivatives” (Bioorg Med Chem, 2017):
Values belong to the compound of their own block, whether it stands above or below them. Activity calls are given as the source filed them. No cut-off for these calls is given here.

Experiments:
[1] = target: T1, Cyclin-dependent kinase 8 (Homo sapiens, UniProt P49336); test: Inhibition of CDK8 in human A549 cells by mass spectrometric method; type: cell-based
[2] = target: T1, Cyclin-dependent kinase 8; test: Inhibition of CDK8 induced beta-catenin transcriptional activity in human HCT116 cells by luciferase reporter gene assay; type: cell-based
[3] = target: T2, CDK8/Cyclin C (Homo sapiens, UniProt P49336); test: Inhibition of full length recombinant human His-tagged CDK8/Cyclin C expressed in baculovirus expression system by LanthaScreen assay
[4] = target: CDK2/Cyclin A2 (Homo sapiens) (UniProt P24941+P20248); test: Inhibition of CDK2/cyclin A (unknown origin) at 1 uM using histone H1 as substrate preincubated for 5 mins followed by substrate addition measured after 20 mins in presence of [gamma33P]ATP by scintillation counter method relative to control; type: protein-complex assay
[5] = target: T3, Cyclin-dependent kinase 9 (Homo sapiens, UniProt P50750); test: Inhibition of CDK9 (unknown origin) at 1 uM relative to control
[6] = target: Cyclin-C/Cyclin-dependent kinase 19 (Homo sapiens) (UniProt Q9BWU1+P24863); conditions: 1 uM
Description: Inhibition of kinase tracer-236 binding to GST-tagged CDK19/CyclinC (unknown origin) at 1 uM after 60 mins by TR-FRET assay relative to control

[7] = target: CDC7/DBF4 (Cell division cycle 7-related protein kinase/Activator of S phase kinase) (Homo sapiens) (UniProt Q9UBU7+O00311); test: Inhibition of CDC7/Dbf4 (unknown origin) at 1 uM using His-tagged MCM2 as substrate preincubated for 5 mins followed by substrate addition measured after 60 mins in presence of [gamma33P]ATP by scintillation counter method relative to control; type: protein-complex assay
[8] = target: Hepatocyte growth factor receptor (Homo sapiens) (UniProt P08581); test: Inhibition of cMET (unknown origin) at <1 uM
[9] = target: CDK8/Cyclin C (Homo sapiens) (UniProt P49336+P24863); conditions: 1 uM
Description: Inhibition of kinase tracer-236 binding to GST-tagged CDK8/CyclinC (unknown origin) at 1 uM after 60 mins by TR-FRET assay relative to control

[10] = target: Cyclin-C/Cyclin-dependent kinase 19 (Homo sapiens, UniProt Q9BWU1); test: Inhibition of kinase tracer-236 binding to GST-tagged CDK19/CyclinC (unknown origin) after 60 mins by TR-FRET assay; type: protein-complex assay
[11] = target: Rho-associated protein kinase 1 (Homo sapiens) (UniProt Q13464); test: Inhibition of ROCK1 (unknown origin) at 1 uM using long S6 peptide as substrate pretreated for 5 mins followed by substrate addition measured after 10 mins in presence of [gamma33P]ATP by scintillation counting method relative to control
[12] = Intrinsic clearance in human liver microsomes at 1 umol/l after 15 to 30 mins in presence of NADPH by LC-MS/MS analysis; type: ADME, microsome; conditions: read-out: CLH
[13] = target: Serine/threonine-protein kinase Chk1 (Homo sapiens) (UniProt O14757); test: Inhibition of CHK1 (unknown origin) at <1 uM using CHKtide as substrate preincubated for 5 mins followed by substrate addition measured after 10 mins in presence of [gamma33P]ATP by scintillation counter method
[14] = target: Insulin receptor (Homo sapiens) (UniProt P06213); test: Inhibition of IRK (unknown origin) at <1 uM using biotinylated poly[Glu:Tyr] (4:1) as substrate pretreated for 5 mins followed by substrate addition measured after 60 mins by Alphascreen assay
[15] = target: T2, CDK8/Cyclin C; test: Inhibition of kinase tracer-236 binding to GST-tagged CDK8/CyclinC (unknown origin) after 60 mins by TR-FRET assay; type: protein-complex assay
[16] = target: T1, Cyclin-dependent kinase 8; test: Inhibition of CDK8 in human SW480 cells assessed as decrease in STAT1 phosphorylation at Ser727 after 2 hrs by Western blot method
[17] = species: Homo sapiens; test: Inhibition of PKA (unknown origin) at 1 uM using PKA peptide as substrate preincubated for 5 mins followed by substrate addition measured after 10 mins in presence of [gamma33P]ATP by scintillation counter method relative to control
[18] = target: High affinity nerve growth factor receptor (Homo sapiens) (UniProt P04629); test: Inhibition of TrkA (unknown origin) at <1 uM
[19] = target: MAP kinase-activated protein kinase 2 (Homo sapiens) (UniProt P49137); test: Inhibition of MAPKAPK2 (unknown origin) at <1 uM using KKLNRTLSVA-NH2 as substrate preincubated for 5 mins followed by substrate addition measured after 10 mins in presence of [gamma33P]ATP by scintillation counter method
[20] = target: Focal adhesion kinase 1 (Homo sapiens) (UniProt Q05397); test: Inhibition of FAK (unknown origin) at <1 uM using biotinylated poly[Glu:Tyr] (4:1) as substrate pretreated for 5 mins followed by substrate addition measured after 20 mins by Alphascreen assay
[21] = target: Ephrin type-A receptor 5 (Homo sapiens) (UniProt P54756); test: Inhibition of EphA5 (unknown origin) at <1 uM using biotinylated poly[Glu:Tyr] (4:1) as substrate pretreated for 5 mins followed by substrate addition measured after 10 mins by Alphascreen assay
[22] = target: RAC-alpha serine/threonine-protein kinase (Homo sapiens) (UniProt P31749); test: Inhibition of Akt1 (unknown origin) at <1 uM using AKT1 substrate pretreated for 5 mins followed by substrate addition after 20 mins in presence of [gamma33P]ATP by scintillation counter method
[23] = target: Protein kinase C theta type (Homo sapiens) (UniProt Q04759); test: Inhibition of PKCtheta (unknown origin) at 1 uM using MBP as substrate preincubated for 5 mins followed by substrate addition measured after 60 mins in presence of [gamma33P]ATP by scintillation counter method relative to control
[24] = target: Glycogen synthase kinase-3 beta (Homo sapiens) (UniProt P49841); test: Inhibition of GSK3beta (unknown origin) at 1 uM using GSK3 substrate peptide preincubated for 5 mins followed by substrate addition measured after 30 mins in presence of [gamma33P]ATP by scintillation counter method relative to control
[25] = target: Aurora kinase B (Homo sapiens) (UniProt Q96GD4); test: Inhibition of Aurora B (unknown origin) at <1 uM using aurora peptide as substrate preincubated for 5 mins followed by substrate addition measured after 60 mins in presence of [gamma33P]ATP by scintillation counter method
[26] = target: Vascular endothelial growth factor receptor 2 (Homo sapiens) (UniProt P35968); test: Inhibition of VEGFR2 (unknown origin) at <1 uM using biotinylated poly[Glu:Tyr] (4:1) as substrate pretreated for 5 mins followed by substrate addition measured after 10 mins by Alphascreen assay
[27] = target: Phosphatidylinositol 4,5-bisphosphate 3-kinase catalytic subunit alpha isoform (Homo sapiens) (UniProt P42336); test: Inhibition of PI3Kalpha (unknown origin) at <1 uM
[28] = target: Mitogen-activated protein kinase kinase kinase 5 (Homo sapiens) (UniProt Q99683); test: Inhibition of ASK1 (unknown origin) at 1 uM using MBP as substrate preincubated for 5 mins followed by substrate addition measured after 60 mins in presence of [gamma33P]ATP by scintillation counter method relative to control
[29] = target: Serine/threonine-protein kinase PLK1 (Homo sapiens) (UniProt P53350); test: Inhibition of PLK1 (unknown origin) at 1 uM using alpha-casein as substrate preincubated for 5 mins followed by substrate addition measured after 60 mins in presence of [gamma33P]ATP by scintillation counter method relative to control
[30] = target: Mitogen-activated protein kinase 14 (Homo sapiens) (UniProt Q16539); test: Inhibition of p38alpha (unknown origin) at <1 uM using MBP as substrate preincubated for 5 mins followed by substrate addition measured after 60 mins in presence of [gamma32P]ATP by scintillation counter method
[31] = target: Proto-oncogene tyrosine-protein kinase Src (Homo sapiens) (UniProt P12931); test: Inhibition of SRC (unknown origin) at <1 uM using biotinylated poly[Glu:Tyr] (4:1) as substrate pretreated for 5 mins followed by substrate addition measured after 10 mins by Alphascreen assay
[32] = target: Casein kinase I isoform delta (Homo sapiens) (UniProt P48730); test: Inhibition of CK1delta (unknown origin) at 1 uM using CK1tide as substrate preincubated for 5 mins followed by substrate addition measured after 20 mins in presence of [gamma33P]ATP by scintillation counter method relative to control
[33] = target: T3, Cyclin-dependent kinase 9; test: Inhibition of CDK9 (unknown origin)
[34] = target: Dual specificity mitogen-activated protein kinase kinase 1 (Homo sapiens) (UniProt Q02750); test: Inhibition of MEK1 (unknown origin) at <1 uM using GST-ERK1 as substrate preincubated for 5 mins followed by substrate addition measured after 20 mins in presence of [gamma33P]ATP by scintillation counter method
[35] = target: Mitogen-activated protein kinase 3 (Homo sapiens) (UniProt P27361); test: Inhibition of ERK1 (unknown origin) at <1 uM using MBP as substrate preincubated for 5 mins followed by substrate addition measured after 60 mins in presence of [gamma33P]ATP by scintillation counter method
[36] = target: Tyrosine-protein kinase JAK1 (Homo sapiens) (UniProt P23458); test: Inhibition of JAK1 (unknown origin) at <1 uM using biotinylated poly[Glu:Tyr] (4:1) as substrate pretreated for 5 mins followed by substrate addition measured after 10 mins by Alphascreen assay
[37] = target: T1, Cyclin-dependent kinase 8; test: Inhibition of CDK8 (unknown origin) at 1 uM by ADP-Glo assay
[38] = tested on: SET-2; test: Antitumor activity against human SET2 cells implanted in […] assessed as reduction in tumor volume administered intraperitoneally relative to control; type: functional; parameters: scale not given: the % may be the effect or the level left

T1 sequence (P49336 whole entry): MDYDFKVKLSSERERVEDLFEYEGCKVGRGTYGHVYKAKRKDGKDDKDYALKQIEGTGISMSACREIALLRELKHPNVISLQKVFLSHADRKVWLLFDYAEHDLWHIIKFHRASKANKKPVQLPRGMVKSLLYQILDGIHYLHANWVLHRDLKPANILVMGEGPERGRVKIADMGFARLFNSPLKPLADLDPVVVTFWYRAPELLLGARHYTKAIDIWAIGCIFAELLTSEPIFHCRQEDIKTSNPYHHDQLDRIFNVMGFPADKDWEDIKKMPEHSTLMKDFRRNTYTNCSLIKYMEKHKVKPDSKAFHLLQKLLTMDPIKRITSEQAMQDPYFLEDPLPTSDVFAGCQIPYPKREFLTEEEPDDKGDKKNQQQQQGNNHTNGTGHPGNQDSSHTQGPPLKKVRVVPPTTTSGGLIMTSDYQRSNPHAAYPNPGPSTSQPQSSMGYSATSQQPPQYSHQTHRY
T3 sequence (P50750 whole entry): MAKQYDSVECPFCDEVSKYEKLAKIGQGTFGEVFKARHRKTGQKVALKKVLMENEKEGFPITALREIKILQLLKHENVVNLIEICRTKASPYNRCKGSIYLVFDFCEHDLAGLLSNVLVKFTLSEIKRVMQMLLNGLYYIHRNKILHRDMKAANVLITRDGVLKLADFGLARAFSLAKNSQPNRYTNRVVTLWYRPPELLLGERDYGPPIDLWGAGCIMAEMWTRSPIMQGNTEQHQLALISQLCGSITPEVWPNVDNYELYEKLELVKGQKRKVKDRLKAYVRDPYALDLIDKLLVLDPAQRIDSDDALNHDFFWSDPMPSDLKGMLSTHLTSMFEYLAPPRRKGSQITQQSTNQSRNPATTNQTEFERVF
T2 sequence (P49336 whole entry): as the sequence (P49336 whole entry) above
T2 sequence (P24863 whole entry, further chain): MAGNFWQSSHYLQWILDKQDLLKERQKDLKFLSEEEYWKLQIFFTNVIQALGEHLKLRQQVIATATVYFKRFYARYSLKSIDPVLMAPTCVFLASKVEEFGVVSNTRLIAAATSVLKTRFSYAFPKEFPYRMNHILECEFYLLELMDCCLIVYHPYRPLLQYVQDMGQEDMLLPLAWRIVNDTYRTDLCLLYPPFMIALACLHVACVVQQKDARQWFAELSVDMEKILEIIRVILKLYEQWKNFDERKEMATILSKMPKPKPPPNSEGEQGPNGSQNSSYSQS
Chain of CDC7/DBF4 (Cell division cycle 7-related protein kinase/Activator of S phase kinase) (Homo sapiens) (O00311 whole entry, looked up): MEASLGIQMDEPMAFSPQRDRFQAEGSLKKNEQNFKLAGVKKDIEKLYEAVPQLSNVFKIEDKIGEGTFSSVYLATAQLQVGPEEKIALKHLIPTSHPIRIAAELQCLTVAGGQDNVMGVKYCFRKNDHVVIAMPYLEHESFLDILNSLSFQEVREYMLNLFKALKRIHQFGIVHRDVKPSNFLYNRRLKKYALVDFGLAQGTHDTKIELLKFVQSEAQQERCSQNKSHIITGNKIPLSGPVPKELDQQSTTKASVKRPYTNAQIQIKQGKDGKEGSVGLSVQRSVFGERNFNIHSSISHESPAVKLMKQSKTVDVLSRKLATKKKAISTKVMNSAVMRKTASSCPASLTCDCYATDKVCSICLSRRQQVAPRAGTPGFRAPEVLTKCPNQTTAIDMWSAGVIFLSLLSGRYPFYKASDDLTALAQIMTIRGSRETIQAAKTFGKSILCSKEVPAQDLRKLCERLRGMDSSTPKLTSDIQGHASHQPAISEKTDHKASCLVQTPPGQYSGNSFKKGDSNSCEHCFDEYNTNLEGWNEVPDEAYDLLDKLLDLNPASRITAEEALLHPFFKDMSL
Chain of CDC7/DBF4 (Cell division cycle 7-related protein kinase/Activator of S phase kinase) (Homo sapiens) (Q9UBU7 whole entry, looked up): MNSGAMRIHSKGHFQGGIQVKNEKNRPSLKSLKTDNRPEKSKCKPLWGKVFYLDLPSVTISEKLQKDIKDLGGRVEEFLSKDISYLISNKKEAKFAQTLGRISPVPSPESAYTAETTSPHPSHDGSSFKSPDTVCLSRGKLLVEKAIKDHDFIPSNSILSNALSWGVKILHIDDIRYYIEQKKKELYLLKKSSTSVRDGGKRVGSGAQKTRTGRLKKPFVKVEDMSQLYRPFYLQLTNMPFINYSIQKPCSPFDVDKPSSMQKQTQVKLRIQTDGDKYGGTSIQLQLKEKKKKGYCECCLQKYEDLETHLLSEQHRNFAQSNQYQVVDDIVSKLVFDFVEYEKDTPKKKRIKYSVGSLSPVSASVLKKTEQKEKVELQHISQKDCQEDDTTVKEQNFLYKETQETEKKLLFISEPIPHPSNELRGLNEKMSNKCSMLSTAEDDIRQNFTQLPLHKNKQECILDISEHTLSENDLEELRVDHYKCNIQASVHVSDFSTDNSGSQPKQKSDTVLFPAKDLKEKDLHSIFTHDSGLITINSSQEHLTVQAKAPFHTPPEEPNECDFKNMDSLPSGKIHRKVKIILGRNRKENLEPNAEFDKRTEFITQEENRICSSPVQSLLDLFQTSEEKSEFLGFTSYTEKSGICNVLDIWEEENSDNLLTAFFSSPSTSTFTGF
Chain of Casein kinase I isoform delta (Homo sapiens) (P48730 whole entry, looked up, canonical isoform): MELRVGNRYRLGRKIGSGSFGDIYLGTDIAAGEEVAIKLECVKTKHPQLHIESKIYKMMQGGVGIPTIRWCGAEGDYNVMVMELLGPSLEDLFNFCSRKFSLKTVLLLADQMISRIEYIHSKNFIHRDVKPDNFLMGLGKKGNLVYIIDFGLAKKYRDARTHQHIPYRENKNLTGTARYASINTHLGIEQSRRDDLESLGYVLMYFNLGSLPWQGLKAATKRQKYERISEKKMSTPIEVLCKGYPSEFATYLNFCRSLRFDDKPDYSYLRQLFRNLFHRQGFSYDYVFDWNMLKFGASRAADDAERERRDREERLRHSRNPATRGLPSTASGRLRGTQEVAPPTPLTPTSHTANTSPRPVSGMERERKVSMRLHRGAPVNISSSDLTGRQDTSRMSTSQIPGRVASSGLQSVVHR
Chain of Hepatocyte growth factor receptor (Homo sapiens) (P08581 whole entry): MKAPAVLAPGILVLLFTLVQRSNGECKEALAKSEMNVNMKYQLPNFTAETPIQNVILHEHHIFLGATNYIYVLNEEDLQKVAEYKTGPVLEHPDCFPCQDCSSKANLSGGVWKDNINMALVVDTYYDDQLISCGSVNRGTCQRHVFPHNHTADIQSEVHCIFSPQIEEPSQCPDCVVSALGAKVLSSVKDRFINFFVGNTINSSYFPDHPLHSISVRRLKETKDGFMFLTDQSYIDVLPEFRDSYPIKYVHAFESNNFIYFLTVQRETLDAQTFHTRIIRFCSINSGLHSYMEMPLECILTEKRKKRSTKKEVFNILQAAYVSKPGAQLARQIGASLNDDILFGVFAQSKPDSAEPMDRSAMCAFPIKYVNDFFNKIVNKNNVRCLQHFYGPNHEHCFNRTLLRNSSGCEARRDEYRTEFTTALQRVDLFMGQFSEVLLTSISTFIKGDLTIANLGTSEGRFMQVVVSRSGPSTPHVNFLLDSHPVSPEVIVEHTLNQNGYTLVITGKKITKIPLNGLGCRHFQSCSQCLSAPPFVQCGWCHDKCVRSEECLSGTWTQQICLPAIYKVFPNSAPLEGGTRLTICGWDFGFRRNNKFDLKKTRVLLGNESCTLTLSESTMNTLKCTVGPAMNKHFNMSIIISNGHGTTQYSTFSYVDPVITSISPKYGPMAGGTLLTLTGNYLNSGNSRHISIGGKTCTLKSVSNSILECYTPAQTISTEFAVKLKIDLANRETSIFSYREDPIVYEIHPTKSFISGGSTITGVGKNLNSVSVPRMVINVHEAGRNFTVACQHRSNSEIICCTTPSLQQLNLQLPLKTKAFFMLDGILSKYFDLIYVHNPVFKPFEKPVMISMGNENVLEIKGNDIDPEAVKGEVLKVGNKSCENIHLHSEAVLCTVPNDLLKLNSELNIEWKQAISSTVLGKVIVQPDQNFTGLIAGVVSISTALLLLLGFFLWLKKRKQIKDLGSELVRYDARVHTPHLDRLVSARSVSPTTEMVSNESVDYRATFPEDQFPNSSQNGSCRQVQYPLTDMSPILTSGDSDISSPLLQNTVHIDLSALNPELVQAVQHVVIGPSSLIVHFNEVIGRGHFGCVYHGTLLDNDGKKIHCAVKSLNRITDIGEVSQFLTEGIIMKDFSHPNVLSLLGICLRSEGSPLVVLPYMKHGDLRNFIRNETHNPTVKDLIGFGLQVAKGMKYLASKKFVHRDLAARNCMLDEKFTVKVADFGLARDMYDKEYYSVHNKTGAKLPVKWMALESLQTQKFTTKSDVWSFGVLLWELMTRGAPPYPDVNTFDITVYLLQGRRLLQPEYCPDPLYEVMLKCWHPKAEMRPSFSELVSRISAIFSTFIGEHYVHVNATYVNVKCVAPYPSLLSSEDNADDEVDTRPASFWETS
Chain of Serine/threonine-protein kinase PLK1 (Homo sapiens) (P53350 whole entry): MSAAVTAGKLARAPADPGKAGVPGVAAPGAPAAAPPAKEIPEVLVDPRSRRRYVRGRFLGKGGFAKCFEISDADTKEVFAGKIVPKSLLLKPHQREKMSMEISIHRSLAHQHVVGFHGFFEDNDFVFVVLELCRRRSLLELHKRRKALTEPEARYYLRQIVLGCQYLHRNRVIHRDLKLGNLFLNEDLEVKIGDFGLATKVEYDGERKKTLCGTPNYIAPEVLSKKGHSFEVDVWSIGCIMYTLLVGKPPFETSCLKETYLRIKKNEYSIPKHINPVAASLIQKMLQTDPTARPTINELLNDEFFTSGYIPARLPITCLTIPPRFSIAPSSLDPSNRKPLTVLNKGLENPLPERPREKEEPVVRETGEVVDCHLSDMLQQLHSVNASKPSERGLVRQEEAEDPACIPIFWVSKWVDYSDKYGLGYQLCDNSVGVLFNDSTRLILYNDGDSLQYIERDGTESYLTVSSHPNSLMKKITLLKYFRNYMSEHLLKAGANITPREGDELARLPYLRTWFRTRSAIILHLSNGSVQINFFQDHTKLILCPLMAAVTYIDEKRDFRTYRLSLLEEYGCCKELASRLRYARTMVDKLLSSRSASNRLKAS

Compound: CSc1sc(C(N)=O)c2c1-c1sncc1CC2
- inhibition [4]: 95%
- inhibition [5]: 105%
- inhibition [6]: 97%
- inhibition [7]: 91%
- inhibition [8]: inactive
- inhibition [9]: 99%
- IC50 [10]: 1.3 to 1.7 nM
- inhibition [11]: 81%
- microsomal CLint at 1 µM [12]: 137 µL/min/mg
- inhibition [13]: inactive
- inhibition [14]: inactive
- IC50 [15]: 0.65 nM
- EC50 [16]: 8.9 nM
- inhibition [17]: 62%
- inhibition [18]: inactive
- inhibition [19]: inactive
- inhibition [20]: inactive
- inhibition [21]: inactive
- inhibition [22]: inactive
- inhibition [23]: 77%
- inhibition [24]: 64%
- inhibition [25]: inactive
- inhibition [26]: inactive
- inhibition [27]: inactive
- inhibition [28]: 60%
- inhibition [29]: 62%
- inhibition [30]: inactive
- inhibition [31]: inactive
- inhibition [32]: 94%
- IC50 [33]: 4 nM
- inhibition [34]: inactive
- inhibition [35]: inactive
- inhibition [36]: inactive

Compound: CN(C)[C@H]1C[C@@]23CC[C@@]4(O2)C(=CC[C@]2(C)[C@@H](c5ccc6ccncc6c5)CC[C@H]24)C=C3[C@@H](O)[C@@H]1O
- Activity [38]: 71%

Results, then the compound that gave them:

- IC50 [1]: 22 nM
Compound: NC(=O)C[C@H]1CCc2sc3ncnc(O[C@H]4CC[C@H](N5CCOCC5)CC4)c3c21

- EC50 [2]: 337 nM
- IC50 [3]: 31 nM
Compound: c1cc2cc(c1)-c1cnc3ccc(nn13)NCCCCCO2

- inhibition [37]: 96%
Compound: Brc1c(Br)c2c3c(nc(N4CCNCC4)n3CCC2)c1Br
